Common to all, as to assay type: cell-based
Experiment [1] deals with Protein cereblon/Peptidyl-prolyl cis-trans isomerase FKBP1A (Homo sapiens, UniProt P62942+Q96SW2). The experiment can be described thus: PROTAC activity at CRBN/FKBP12 in human Jurkat cells assessed as induction of FKBP12 degradation incubated for 12 hrs by Western blot analysis. For orientation: Immunoblotting shows a protein as a band on a membrane.
The target of experiment [2] is T1, Protein cereblon/Bcl-2-like protein 1 (Homo sapiens, UniProt Q07817+Q96SW2). The experiment can be described thus: PROTAC activity at CRBN/BCL-XL in human WI-38 cells assessed as induction of BCL-XL degradation incubated for 16 hrs by Western blot analysis.
Target sequence in this assay (Q07817 whole entry): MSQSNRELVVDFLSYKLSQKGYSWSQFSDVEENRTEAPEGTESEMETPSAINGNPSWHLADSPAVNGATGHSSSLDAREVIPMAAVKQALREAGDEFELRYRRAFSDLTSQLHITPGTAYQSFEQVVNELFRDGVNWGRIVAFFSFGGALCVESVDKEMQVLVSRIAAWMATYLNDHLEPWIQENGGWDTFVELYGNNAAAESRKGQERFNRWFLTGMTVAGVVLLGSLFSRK
Target sequence in this assay (Q96SW2 whole entry): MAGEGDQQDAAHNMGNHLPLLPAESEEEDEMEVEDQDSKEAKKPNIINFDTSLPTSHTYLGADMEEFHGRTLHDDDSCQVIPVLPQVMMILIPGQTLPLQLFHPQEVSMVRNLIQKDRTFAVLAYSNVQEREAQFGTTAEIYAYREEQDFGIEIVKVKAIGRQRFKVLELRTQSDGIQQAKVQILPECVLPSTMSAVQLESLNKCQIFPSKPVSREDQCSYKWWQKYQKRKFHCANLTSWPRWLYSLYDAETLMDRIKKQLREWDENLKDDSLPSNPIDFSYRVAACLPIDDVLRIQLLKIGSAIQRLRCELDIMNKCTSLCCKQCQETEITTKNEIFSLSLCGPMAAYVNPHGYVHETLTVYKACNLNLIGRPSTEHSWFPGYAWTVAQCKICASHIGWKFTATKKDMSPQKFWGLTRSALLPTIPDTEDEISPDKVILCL
The target of experiment [3] is T1, Protein cereblon/Bcl-2-like protein 1. The experiment can be described thus: PROTAC activity at CRBN/BCL-XL in human WI-38 cells assessed as induction of BCL-XL degradation incubated for 16 hrs by Western blot analysis relative to control.
Target sequence in this assay (Q07817 whole entry, looked up): as the sequence (Q07817 whole entry) above
Target sequence in this assay (Q96SW2 whole entry, looked up): as the sequence (Q96SW2 whole entry) above

The structures appear in SMILES notation.

As a reminder, the EC50 is the concentration needed to bring the measured effect to its halfway point. A word on the Emax: it is the maximal effect, on the per cent scale that the assay sets.

Sequence of Protein cereblon/Peptidyl-prolyl cis-trans isomerase FKBP1A (P62942 whole entry): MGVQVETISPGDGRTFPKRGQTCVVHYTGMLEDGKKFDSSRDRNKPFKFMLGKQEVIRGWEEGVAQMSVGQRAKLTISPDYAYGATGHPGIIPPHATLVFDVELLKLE
Sequence of Protein cereblon/Peptidyl-prolyl cis-trans isomerase FKBP1A (Q96SW2 whole entry): as the sequence (Q96SW2 whole entry) above

On to `CO[C@H]1C[C@@H]2CC[C@@H](C)[C@@](O)(O2)C(=O)C(=O)N2CCCC[C@H]2C(=O)O[C@H]([C@@H](C)C[C@@H]2CC[C@@H](OCCOCc3cn(CCOCCOCCNc4cccc5c4C(=O)N(C4CCC(=O)NC4=O)C5=O)nn3)[C@H](OC)C2)CC(=O)[C@H](C)/C=C(\C)[C@@H](O)[C@H](OC)C(=O)[C@H](C)C[C@H](C)/C=C/C=C/C=C/1C` (stereo partly drawn), for which the EC50 in experiment [1] is below 0.3 nM.

For `CC1(C)CCC(c2ccccc2)=C(CN2CCN(c3ccc(C(=O)NS(=O)(=O)c4ccc(N[C@H](CCN5CCN(C(=O)CCCn6cc(COCCOCCNc7cccc8c7C(=O)N(C7CCC(=O)NC7=O)C8=O)nn6)CC5)CSc5ccccc5)c(S(=O)(=O)C(F)(F)F)c4)cc3)CC2)C1` (stereo partly drawn), the EC50 in experiment [2] came out at 46 nM. In addition, the Emax in experiment [3] is 96.2%.
